Test results: patent US20160199517A1, “MRI EVALUATION OF HETEROGENEOUS TISSUE” (The Board of Trustees of the Leland Stanford Junior …, priority 2015, published 2016)

System: Ca^2+ channel
Experiment: MEMRI signal modulated by Ca2+ channel activity in single cell culture
Assay type: cell-based, human
Details: cells labelled with Mn^2+; Ca^2+ channel antagonist or agonist

Q: How did the MEMRI signal turn out when (s)-Bay K8644 was run?
A: increased
